Source: paper PMC6979384, “Characterization of the plant homeodomain (PHD) reader family for their histone tail interactions” (Epigenetics & Chromatin, 2020)

Assays:
Assay in all cases: dCypher AlphaScreen Phase A (reader titration)
Format in all cases: binding, human
Conditions in all cases: 100 nM peptide, 23 °C, n = 2
[1] = test system: PHRF1 (RP)
Experimental: (§1) Fig. 3 dCypher histone peptide-binding assays define the PTM recognition preference of PHD proteins with high sensitivity. a–h Binding curves to determine optimal reader protein concentration for full peptide library screening on the dCypher® AlphaScreen® platform (see “Methods”). X-axes are log(protein concentration (M)) at constant peptide concentration (100 nM); Y-axes are AlphaScreen counts, representing relative strength of binding (n = 2; error bars are S.D.). i Heat map represents relative binding to H3 N-terminal peptides (left) by PHD-containing GST-tagged proteins (top) using the dCypher AlphaScreen platform. Protein concentrations can be found in Additional file 5: Table S4. Binding strength is indicated by color gradient from green to yellow (stronger to weaker). The asterisk (*) by MLL5 signifies its general preference for H3K4 methylation. Alpha counts (n = 2) were normalized individually for each protein to the highest signal for each respective assay. For full dCypher peptide screen data, see Additional file 4: Table S3
(§2) We next employed a highly sensitive proximity-based AlphaScreen histone peptide assay (dCypher®) to provide a third and orthogonal approach to analyzing the histone binding preferences for a subset of the 31 PHD proteins with respect to various histone tail PTMs. In this assay, biotinylated peptides are bound to streptavidin “donor” beads and the GST-tagged reader domains bound to Glutathione “acceptor” beads. […] Initial binding assays were conducted for each fusion protein using three peptides [H3 (1–20) with K4me0, H3K4me3 or H3K9me3] to determine the optimal reader domain concentration for full peptide library studies (Fig. 3a–h; Additional file 4: Table S3 and Additional file 5: Table S4). […]
(§3) The dCypher peptide screen assay was performed as previously described. […] Plates were incubated at 23 °C in subdued lighting for 60 min and AlphaLISA signal measured on a PerkinElmer 2104 EnVision (680 nm laser excitation, 570 nm emission filter ± 50 nm bandwidth). […]

[2] = test system: CHD4 (PPCC)
Experimental: as §1, §2, §3

[3] = test system: TRIM66 (PB)
Experimental: as §1, §2, §3

## H3K9me3: H3 1-20 [Peptide H3K9me3]
[1]
  binding preference at low versus high protein concentrations: distinct binding preference for the H3K9me3 peptide over the H3K4me0 peptide
[2]
  relative binding over a range of protein concentration: stronger interaction with H3K9me3 compared with the unmodified peptide
[3]
  relative binding over a range of protein concentration: stronger interaction with H3K9me3 compared with the unmodified peptide
